Like-named read-outs stand apart in the source and are kept apart here.
Columns and labels:
human LINE-1 [1] = assay: Human LINE-1 retrotransposition assay, related experiments with islatravir (pYX017, HeLa cells, Tables 12 and 13); format: cell-based
Procedure: In related experiments, islatravir and other compounds were tested for inhibition of retrotransposition activity of human LINE-1 in HeLa cells according to the following procedure.
HeLa cervical cancer cells were cultivated at 37° C. in a humidified 5% CO2 incubator in Dulbecco's Modified Eagle's Medium (DMEM)—high glucose, with 4500 mg/L glucose, L-glutamine, sodium pyruvate and sodium bicarbonate (Sigma), supplemented with 10% of heat inactivated fetal bovine serum (Thermo Fisher).
Assays were performed using reporter plasmid pYX017 as described (Xie, et al., 2011) with several modifications. The reporter assay was performed in 96-well white optical bottom plates. HeLa cells were seeded in wells 24 h prior to transfection and compound treatment so that cells were approximately 30% confluent on the day of transfection. Different cell plating densities were tested and a density of 2×10^3 cells was determined to be optimal.
Compounds were resuspended in DMSO. Serial dilutions (1:3) were prepared in DMSO. Medium containing different concentrations of the compounds were prepared by adding 2 μl of the compound dilution to 1 ml of the culture medium. The final concentration of DMSO in the medium was 0.2%.
FuGENE® HD transfection reagent (Promega, E2311, Lot 382574 and Lot 397842) was used to transfect the plasmids into the cells. The transfection reagent: DNA mixture was prepared in OpiMEM (Thermo Fisher) according to manufacturer's instructions. Different ratios of transfection reagent to DNA were tested and a ratio of 3:1 was determined to be optimal. Culture medium was removed from the cells and discarded. The transfection reagent: DNA mixture (5 μl) was mixed with the compound containing medium (100 μl/well) and this was added onto the cells of each well. Cells were incubated at 37° C./5% CO2 for different incubation time. A 72 h incubation time was determined to be optimal.
Luciferase reporter activity was quantified with the Dual-Luciferase® Reporter Assay System (Promega) according to manufacturer's instructions for multiwell plates except that cells were lysed directly on the multiwell plate with 30 μl of the passive lysis buffer (PLB) for 20 min at room temperature, with gentle shaking to ensure complete cell lysis.
Firefly and Renilla luciferase signals were measured using a SpectraMax i3x Multi-Mode Microplate Reader. Integration times of 100 ms and 10 ms were used to measure the Firefly and Renilla signals respectively. Relative L1 activity is calculated as Firefly/Renilla *1000 or Firefly/Renilla *10,000. Dose response inhibition data were fit to a four parameter logistic equation using non-linear regression (using Graphpad Prism 8), to determine IC50 values for each inhibitor.

mouse LINE-1 = assay: Mouse LINE-1 retrotransposition assay (dual luciferase pYX016 reporter, HeLa cells); format: cell-based
Procedure: Elvucitabine was obtained by custom synthesis. […] HeLa cervical cancer cells were cultivated at 37° C. in a humidified 5% CO2 incubator in Dulbecco's Modified Eagle's Medium (DMEM)-high glucose, with 4500 mg/L glucose, L-glutamine, sodium pyruvate and sodium bicarbonate (Sigma), supplemented with 10% of heat inactivated fetal bovine serum (Thermo Fisher). Assays were performed as described in Xie et al., 2011^151 with several modifications. The reporter assay was performed in 96 well white Optical bottom plates. 6000 HeLa cells were seeded in each well 24 hours prior transfection and compound treatment. All compounds were resuspended in DMSO. Stock solution concentrations varied from 50 mM to 1.25 mM depending of the solubility of the compound. Serial dilutions (1:3) were prepared in DMSO. Ten different concentrations of each compound were tested in triplicate. Medium containing different concentrations of the compounds were prepared by adding 2 μL of the compound dilution to 1 mL of the culture medium. The final concentration of DMSO in the medium was 0.2%. FuGENE® HD transfection reagent (Promega) was used to transfect the plasmid pYX016 into the cells. The transfection mix was prepared in OpiMEM (Thermo Fisher) using a reagent to DNA ratio of 3.5:1 according to manufacturer's instructions. Culture medium was removed from the cells and discarded. The transfection mix (5 μL) was mixed with the compound containing medium (100 μL/well) and this was added onto the cells of each well. Cells were incubated for 48H at 37° C./5% CO2. Luciferase reporter activity was quantified with the Dual-Luciferase® Reporter Assay System (Promega) according to manufacturer's instructions for multiwell plates with the following modification: Cells were lysed directly on the multiwell plate with 30 μL of the passive lysis buffer (PLB) for 20 min at room temperature, with gentle shaking to ensure complete cell lysis (instead of 20 μL of PLB for 15 min). Firefly and Renilla luciferase signals were measured using a SpectraMax i3x Multi-Mode Microplate Reader. […] Relative L1 activity was calculated as Firefly/Renilla *10,000. […] The experiment was performed twice, independently.

human LINE-1 [2] = assay: Islatravir Inhibitory Quotient (IQ) estimate for human LINE-1 in PBMC and brain; conditions: PBMC, intracellular EFdA-TP, used for IQ
[3] = in vivo; cited from earlier work
HIV WT = conditions: read-out: IC50 for HIV (intracellular EFdA-TP); cited from earlier work
[4] = Table 13 Comparative Studies; cited from earlier work
[5] = Comparative studies: intracellular drug concentration relative to LINE-1 IC50 and huCSF/Plasma ratio; conditions: Table 13 Comparative Studies
human LINE-1 [6] = assay: Human LINE-1 retrotransposition assay (dual luciferase pYX017 reporter, HeLa cells, Table 11); format: cell-based
Procedure: Assays were performed as described in Xie et al., 2011^151 with several modifications. The reporter assay was performed in 96 well white Optical bottom plates. 6000 HeLa cells were seeded in each well 24 hours prior transfection and compound treatment. All compounds were resuspended in DMSO. Stock solution concentrations varied from 50 mM to 1.25 mM depending of the solubility of the compound. Serial dilutions (1:3) were prepared in DMSO. Ten different concentrations of each compound were tested in triplicate. Medium containing different concentrations of the compounds were prepared by adding 2 μL of the compound dilution to 1 mL of the culture medium. The final concentration of DMSO in the medium was 0.2%. FuGENE® HD transfection reagent (Promega) was used to transfect the plasmid pYX016 into the cells. The transfection mix was prepared in OpiMEM (Thermo Fisher) using a reagent to DNA ratio of 3.5:1 according to manufacturer's instructions. Culture medium was removed from the cells and discarded. The transfection mix (5 μL) was mixed with the compound containing medium (100 μL/well) and this was added onto the cells of each well. Cells were incubated for 48H at 37° C./5% CO2. Luciferase reporter activity was quantified with the Dual-Luciferase® Reporter Assay System (Promega) according to manufacturer's instructions for multiwell plates with the following modification: Cells were lysed directly on the multiwell plate with 30 μL of the passive lysis buffer (PLB) for 20 min at room temperature, with gentle shaking to ensure complete cell lysis (instead of 20 μL of PLB for 15 min). Firefly and Renilla luciferase signals were measured using a SpectraMax i3x Multi-Mode Microplate Reader. […] Relative L1 activity was calculated as Firefly/Renilla *10,000. […] The experiment was performed twice, independently. […] Because the human construct yields a lower signal, compounds were incubated with cells for 72 hours instead of 48 hours, and cells were seeded at a density of 2000/well instead of 6000/well. In addition, the transfection reagent to DNA ratio was 2:1 instead of 3.5:1.

[7] = Homo sapiens, HeLa cells, pYX017, 72 h, n = 3, read-out: Human LINE-1 IC50, Average
[8] = Homo sapiens, HeLa cells, pYX017, 72 h, read-out: Human LINE-1 IC50, Exp. 3
[9] = Homo sapiens, HeLa cells, pYX017, 72 h, read-out: Human LINE-1 IC50, Exp.1
[10] = pYX016, 48 H post-transfection, read-out: Mouse L1 activity inhibition IC50, Exp. 1
[11] = pYX016, 48 H post-transfection, read-out: Mouse L1 activity inhibition IC50, Exp. 2
[12] = pYX016, 48 H, n = 2, read-out: Mouse L1 activity inhibition IC50, Average
[13] = Homo sapiens, HeLa cells, pYX017, 72 h, read-out: Human LINE-1 IC50, Exp.2
[14] = Homo sapiens, HeLa, Table 13 Comparative Studies, read-out: Human Line-1 IC50

IC50 (human LINE-1 [1]; [7])	IC50 (human LINE-1 [1]; [8])	IC50 (human LINE-1 [1]; [9])	IC50 (mouse LINE-1; [10])	IC50 (mouse LINE-1; [11])	IC50 (mouse LINE-1; [12])	IC50 (human LINE-1 [1]; [13])	Structure (SMILES)	further results
> 9380 nM	> 20000 nM	9380 nM	–	–	–	–	C[C@@H]1CCO[C@H]2Cn3cc(C(=O)NCc4ccc(F)cc4F)c(=O)c(O)c3C(=O)N12 [Dolutegravir sodium]	–
–	–	–	3470 nM	4020 nM	3750 nM	–	C[C@H](Cn1cnc2c(N)ncnc21)OCP(=O)(O)O [Tenofovir]	IC50 (human LINE-1 [1]; Table 13 Comparative Studies, read-out: Human Line-1 IC50): 2770 nM
> 12400 nM	–	12400 nM	–	–	–	> 50000 nM	O=C(NCc1c(F)cc(F)cc1F)c1cn2c(c(O)c1=O)C(=O)N1[C@H]3CC[C@H](C3)O[C@@H]1C2 [Bictegravir]	–
> 50000 nM	–	> 50000 nM	–	–	–	> 50000 nM	Cc1ccnc2c1NC(=O)c1cccnc1N2C1CC1 [Nevirapine]	–
–	–	–	157 nM	151 nM	154 nM	–	CC(C)OC(=O)OCOP(=O)(CO[C@H](C)Cn1cnc2c(N)ncnc21)OCOC(=O)OC(C)C [Tenofovir Disiproxil, tenofovir disoproxil]	IC50 (human LINE-1 [1]; [14]): 200 nM
> 15100 nM	45500 nM	> 50000 nM	–	–	–	15100 nM	Cc1cc(/C=C/C#N)cc(C)c1Nc1ccnc(Nc2ccc(C#N)cc2)n1 [Rilpivirine]	–
–	–	–	4440 nM	3820 nM	4130 nM	–	Nc1ccn([C@H]2CO[C@@H](CO)S2)c(=O)n1 [Apricitabine]	–
–	–	–	–	–	–	–	C#C[C@]1(COP(=O)(O)OP(=O)(O)OP(=O)(O)O)O[C@@H](n2cnc3c(N)nc(F)nc32)C[C@@H]1O [EFdA-TP]	EC50 (human LINE-1 [2]): 316 nM; intracellular T-half in human PBMC [3]: 78.5 to 128 h; IC50 (HIV WT): 49 nM
–	–	–	–	–	–	–	Nc1nc(NC2CC2)c2ncn([C@H]3C=C[C@@H](CO)C3)c2n1 [Abacavir (ABC), Abacavir]	IC50 (human LINE-1 [1]; [14]): 17100 nM; huCSF/Plasma [4]: 0.67; Human Line-1 Intracellular drug conc. (% of IC-50 conc.) [5]: 106%
–	–	–	1590 nM	1860 nM	1720 nM	–	Cc1cn([C@H]2C=C[C@@H](CO)O2)c(=O)[nH]c1=O [Stavudine]	IC50 (human LINE-1 [1]; [14]): 750 nM; huCSF/Plasma [4]: 0.2; Human Line-1 Intracellular drug conc. (% of IC-50 conc.) [5]: 63%
810 nM	1680 nM	410 nM	–	–	–	340 nM	Cc1cn([C@H]2C[C@H](N=[N+]=[N-])[C@@H](CO)O2)c(=O)[nH]c1=O [Zidovudine]	–
100 nM	50 nM	130 nM	118 nM	105 nM	112 nM	120 nM	C#C[C@@]1(CO)C=C[C@H](n2cc(C)c(=O)[nH]c2=O)O1 [Censavudine]	IC50 (mouse LINE-1; read-out: mouse L1 inhibition IC50): ~100 nM; IC50 (human LINE-1 [6]; pYX017, 72 H post-transfection, read-out: Human L1 activity inhibition IC50, Exp. 1): 53 nM; IC50 (human LINE-1 [6]; pYX017, 72 H post-transfection, read-out: Human L1 activity inhibition IC50, Exp. 2): 92 nM; IC50 (human LINE-1 [6]; pYX017, 72 H, n = 2, read-out: Human L1 activity inhibition IC50, Average): 72 nM; IC50 (human LINE-1 [6]; read-out: human L1 inhibition IC50): ~100 nM
> 250 nM	–	> 50000 nM	–	–	–	> 250 nM	O=C1Nc2ccc(Cl)cc2[C@@](C#CC2CC2)(C(F)(F)F)O1 [Efavirenz]	–

Structure (SMILES)	IC50 (human LINE-1 [1]; [7])	IC50 (human LINE-1 [1]; [8])	IC50 (human LINE-1 [1]; [9])	IC50 (mouse LINE-1; [10])	IC50 (mouse LINE-1; [11])	IC50 (mouse LINE-1; [12])	IC50 (human LINE-1 [1]; [13])	further results
Cc1nnc(C(=O)NC(C)(C)c2nc(C(=O)NCc3ccc(F)cc3)c(O)c(=O)n2C)o1 [Raltegravir potassium]	> 9860 nM	49300 nM	9860 nM	–	–	–	> 50000 nM	–
